Measured values from US20250073209A1, “COVALENT TARGETING OF RhoA FOR CANCER THERAPY” (The University of Hong Kong, priority 2023, published 2025).

Assays:
orthotopic SL4 CRC = experiment: Immunocompetent orthotopic mouse CRC model (SL4 intracecal); type: in vivo
Text: FIG. 13B is a graph showing the weight of tumors from the mice treated with vehicle (n=7) or CL16 (n=8) at the end point of the investigation of CL16 treatment. FIGS. 13C-13H are graphs showing the scores of the immunohistochemistry staining of CD3 (FIG. 13C), CD4 (FIG. 13D), CD8 (FIG. 13E), Ki67 (FIG. 13F), cleaved caspase-3 (FIG. 13G) and VEGFR2 (FIG. 13H) on tumor tissues from the vehicle- or CL16-treated mice, FIG. 131 is a graph showing the changes in the body weight of mice with orthotopic SL4 CRC model treated with solvent vehicle or CL16 through i.p. injection. Antitumor effects of CL16 in an immunocompetent, orthotopic mouse CRC model, which was established by the inoculation of mouse CRC cells, SL4, intracecally were examined (FIG. 20). […] Immunohistochemistry staining of CD3, CD4, CD8, Ki67 was conducted, with cleaved caspase-3 and VEGFR2 on tumor tissues from the vehicle- or CL16-treated mice. […] To the best of our knowledge, this is the first reported study showing an increase in immunity through RhoA inhibition in CRC cells by a small molecule compound.

HT29 xenograft = experiment: Mouse HT29 xenograft model; type: in vivo
Protocol: FIG. 7A is a graph showing inhibition of tumor growth by CL16 in mouse HCT116 xenografts through intraperitoneal injection at 10 mg/kg (n=6 per group). FIG. 7B is a graph showing inhibition of tumor growth by CL16 in mouse HT29 xenografts through intraperitoneal injection at 10 mg/kg (n=7). FIG. 7C is a graph showing the body weight of mice with HT29 xenografts throughout the treatment with CL16. FIG. 7D is a graph showing inhibition of tumor growth by CL16 in mouse SW620 xenografts through intraperitoneal injection at 10 mg/kg (n=6 per group). FIG. 7E is a bar graph showing the tumor weight of harvested tumors from the treated mice with SW620 xenografts. FIG. 7F is a graph showing the body weight of mice with SW620 xenografts throughout the treatment with CL16. Statistical analysis using a two-tailed Student's t-test. *P<0.05.
7-week-old mice with weight around 20 g were inoculated subcutaneously with HCT116 (2×10^6 cells per mouse) or HT29 (3×10^6 cells per mouse) cells, in serum-free RMPI or Matrigel in PBS respectively. […] The tumor volume and body weight of the nude mice were measured throughout the treatment. The tumor volume was calculated by the equation: Volume (mm^3)=1×w^2/2, where 1 and w were the length and width of the tumor. At the end of the treatment, the mice were sacrificed and the tumor weight was measured. […]

Cdc42 = Cdc42 (Homo sapiens, UniProt P60953); experiment: Cdc42-GTP PAK-PBD pull-down in HT29 cells; type: cell-based; set-up: endogenous in cells; host or cells: HT29; conditions: HT29, complete medium 24 h
Text: The procedure is similar to that for RhoA-GTP assay, except that Rac1-GTP and Cdc42-GTP in CRC cells were first enriched by Rac1 Pull-Down Activation Assay Biochem Kit (Cytoskeleton #BK035) instead of using the RhoA kit. The enriched Rac1-GTP and Cdc42-GTP were then immunoblotted by Rac1/2/3 antibody (CST #2465) and Cdc42 antibody (CST #2462) respectively.
GTP loading onto RhoA is critical for the protein activation and mediating downstream signals. In view of the inhibitions of GDP-to-GTP exchange of RhoA by CL16 in vitro as discussed above, effects of CL16 on RhoA biology in colorectal cancer cells were examined. In the serum starvation-re-stimulation experiment, HCT116 cells were grown in serum-free medium with CL16, Rhosin or solvent control for 24 h, followed by stimulation with 10% FBS for 10 min. The cells were then lysed and the RhoA activity was assayed by the level of RhoA-GTP, which is the active form of RhoA. […] HT29 cells were incubated with solvent vehicle, CL16 or Rhosin in complete medium for 24 h. The cells were then washed, lysed and subjected to rhotekin pull-down for blotting RhoA-GTP, or PAK-PBD pull-down for blotting Rac1-GTP and Cdc42-GTP. Confocal fluorescence images from HCT116 and HT29 cells expressing FRET RhoA-biosensor in the serum starvation-restimulation experiment were taken.

HT29 cells = experiment: Transwell (Matrigel) invasion assay; type: cell-based, human; conditions: HT29, 24 h
RhoA = RhoA (Homo sapiens, UniProt P61586); experiment: GDP-GTP exchange assay (BODIPY-GTP); type: biochemical; set-up: purchased ab101594; conditions: fluorescence-based exchange assay
Protocol: Recombinant human RhoA protein (0.2 μg; ab101594) was incubated with GDP (50 nM) in 100 μL of GTP-exchange buffer (20 mM HEPES, 150 mM NaCl, 5 mM MgCl2, pH 7.4) at room temperature for 1 h. CL16 or solvent control was then added to the solution mixture and incubated at room temperature for another hour. For self-exchange assay, BODIPY-GTP (100 nM) was added to the solution and the fluorescence from plate was measured every 30 s. For LARG-mediated GDP-to-GTP exchange, BODIPY-GTP (100 nM) and LARG DH-PH protein (30 nM) were added to the solution mixture and the fluorescence from plate was measured every 30 s. BODIPY-GTP was excited at 477±14 nm and its fluorescence was measured at 525±30 nm using a plate reader (Clariostar).

Chain of RhoA (P61586 whole entry): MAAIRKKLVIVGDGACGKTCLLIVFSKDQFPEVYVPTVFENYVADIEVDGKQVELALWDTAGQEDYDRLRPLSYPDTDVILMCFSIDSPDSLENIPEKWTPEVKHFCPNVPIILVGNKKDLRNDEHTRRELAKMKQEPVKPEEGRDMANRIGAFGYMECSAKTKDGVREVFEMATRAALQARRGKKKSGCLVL
Chain of Cdc42 (P60953 whole entry): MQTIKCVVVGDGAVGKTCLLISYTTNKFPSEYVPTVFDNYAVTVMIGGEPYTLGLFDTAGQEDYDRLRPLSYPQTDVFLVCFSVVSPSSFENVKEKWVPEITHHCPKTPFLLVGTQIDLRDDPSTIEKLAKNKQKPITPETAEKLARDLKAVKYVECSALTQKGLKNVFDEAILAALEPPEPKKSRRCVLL

Compound: O=C(CCl)N1N=C(c2cc3ccccc3o2)CC1c1ccco1 (stereo not shown) [CL16]
- body weight (orthotopic SL4 CRC; i.p. injection): no significant changes in the body weight
- tumor weight (orthotopic SL4 CRC; i.p. injection, end point): significantly lower tumor weight
- organ damage in kidney tissue (orthotopic SL4 CRC; treated mice): no organ damages in the kidney tissue
- Ki67 in tumor tissues (orthotopic SL4 CRC; treated vs vehicle): decrease in Ki67
- cleaved caspase-3 immunohistochemistry in tumor tissues (orthotopic SL4 CRC; treated vs vehicle): elevated level
- CD3 immunohistochemistry of tumor tissues (orthotopic SL4 CRC; tumor tissues): increases
- CD4 immunohistochemistry of tumor tissues (orthotopic SL4 CRC; tumor tissues): increases
- CD8 immunohistochemistry of tumor tissues (orthotopic SL4 CRC; tumor tissues): increases
- VEGFR2 level, immunohistochemistry (orthotopic SL4 CRC; tumor tissues): decrease in VEGFR2 level
- tumor metastasis to liver (orthotopic SL4 CRC; vs control mice): prohibited the tumor metastasis
- body weight, treated vs untreated (HT29 xenograft; HT29 xenografts, FIG. 7C): no observable difference
- tumor growth vs vehicle control (HT29 xenograft; nude mice, 10 mg/kg intraperitoneal): significantly inhibited tumor growth
- Cdc42 activity (Cdc42-GTP) (Cdc42): no significant changes
- cell invasion (HT29 cells): good efficacy in reducing HT29 cell migration and invasion
- GDP-to-GTP self-exchange (RhoA): significant decreases
- LARG-mediated GDP-to-GTP exchange (RhoA): significant decreases
